Data taken from patent US20260014109A1, “VERY LONG CHAIN FATTY ACIDS FOR TREATMENT AND ALLEVIATION OF DISEASES” (EPAX NORWAY AS, priority 2019, published 2026).

Legend:
[1] = test system: human dermal fibroblast cell line (ATCC PCS-201-012); assay: Scratch assay (in-vitro wound healing model) in human dermal fibroblasts (Example 5); format: cell-based; conditions: 10 μM, after 24 hours, control albumin in PBS
Method: (§1) A commercial human dermal fibroblast cell line (ATCC PCS-201-012) was cultured in Dulbecco's modified Eagle's medium according to the method described by Vuong et al2.
ATCC cells were seeded in wells with 2 mL culture media supplemented with 1, 2 and 4 μM Lipid composition A. Control was albumin in PBS. At ˜90-100% confluency, a scratch was created, and wells were thereafter photographed at several time points up to 24 hours. The migration of cells into the scratch/closure of wound over time was examined in light microscopy and images were taken. The scratch/wound closure rate was measured by % confluency in scratch opening (the higher values the better closure of wound).
Cells were seeded in wells with 2 mL culture media supplemented with 10 μM Lipid composition B (6 replicates). Control was albumin in PBS. At ˜90-100% confluency, a scratch was created, and wells were thereafter photographed at several time points up to 24 hours. […]
FIG. 29 provides the effect of Lipid composition B on closure rate of scratch. […] Cells were then scratched and cell migration into wound was followed at different time points (0 and 24 hours shown), using Fiji/ImageJ software, as illustrated in figure A. Scratch size was analyzed as mean percentage decline (calculated from each well's original size at 0 hours to size measured at 24 hours (n=6, results presented in figure B).

ATCC human skin cells = assay: Content of C26:6n-3 in ATCC human skin cells after supplementation of the culture medium (Example 5, 1B); format: cell-based; conditions: media with 10 and 20 μM for 4 days; increase from 0.7; p=0.001 (ANOVA)
Method: as §1
ATCC cells were cultivated in a media supplemented with 10 and 20 μM Lipid composition B for 4 days before harvesting for determination of fatty acid composition. It was made a pooled sample of three replicates per group prior to lipid extraction by the method by Folch et al1.

ATCC cells = assay: Proliferation assay in ATCC human dermal fibroblasts (Example 5); format: cell-based; conditions: incubation until about 50% confluency, albumin controls
Method: as §1
The proliferation assay measures the density/number of cells in culture by fluorescence staining of nucleic acids.
FIG. 28 provides the measurement of cell proliferation after incubation with Lipid composition B until about 50% confluency. Results are presented as the mean±SEM (n=4). The asterisks (*) indicate significant difference between groups. Control 1 and 2 represent albumin equivalent to the albumin concentration in the 20 µM Lipid composition B substrate.

[2] = test system: skin cells (keratocytes) from salmon shells; assay: Cellular content of C26:6n-3 in primary skin cells (keratocytes) from Atlantic salmon (Example 5, 2); format: cell-based; conditions: 20 µM group; 0% in the control group
Method: Primary cell cultures of skin cells (keratocytes) from salmon shells were isolated from freshwater Atlantic salmon. The shells were carefully placed in plate wells and incubated at 13° C. in growth media (L-15) supplemented with 10 μM or 20 μM of the Lipid composition B (26:6n-3) or 25 ng/ml fibroblast growth factor (FGF) as a positive control. Negative control was albumin in PBS.

[3] = test system: skin cells (keratocytes) from salmon shells; assay: Cell migration from salmon shells (Example 5, 2); format: cell-based, Atlantic salmon; design: cell migration from salmon shells, first time point: dose or concentration left out as unconfirmed
Method: Primary cell cultures of skin cells (keratocytes) from salmon shells were isolated from freshwater Atlantic salmon. […] Negative control was albumin in PBS.
The second day after isolation of shells, all wells with the different treatments were inspected under microscope and images taken.
Salmon shells were plucked from freshwater salmon and placed in wells with culture medium, incubated at 13° C. without CO2 and inspected for cell migration the following days. […] Control was albumin in PBS. (n=6). The scale of the y—axis represents no cell migration (0%) to cell migration from all shells (100%). Different letters denote significant differences (p≤0,05).

SMILES: CC/C=C\C/C=C\C/C=C\C/C=C\C/C=C\C/C=C\CCCCCCC(=O)O [Lipid composition B, C26:6n-3]
- wound closure rate by reduced size of wound diameter compared to control [1]: tendencies to increased wound closure rate
- content of C26:6n-3 in ATCC human skin cells (ATCC human skin cells): 5.5 % of total FAs
- cell count (proliferation) compared to controls (ATCC cells): significantly higher cell count
- cellular content of the C26:6n-3 fatty acid in salmon skin cells [2]: 1.4%
- cell migration in salmon skin cell culture relative to control ([3]; 10 µM): significantly increased cell migration
- cell migration from salmon shells, last time point ([3]; low dose (10 µM)): most effect on cell migration
- cell migration from salmon shells, first time point ([3]; relative to albumin control): similar, immediate increased cell migration effect as the FGF
